Measurements reported in ChEMBL document CHEMBL3351285, “Synthesis of chlorinated flavonoids with anti-inflammatory and pro-apoptotic activities in human neutrophils” (Eur J Med Chem, 2014).

Assays:
Neutrophil [1] = experiment: Induction of apoptosis in human neutrophils assessed as necrotic cells at 50 uM after 4 hrs by Annexin-V-FLUOS staining based flow cytometry in presence of Z-DEVD-FMK caspase 3 (reference value: 0.0%); format: functional
Neutrophil [2] = experiment: Induction of apoptosis in human neutrophils assessed as viable cells at 50 uM after 4 hrs by Annexin-V-FLUOS staining based flow cytometry (reference value: 89.8%); format: functional; details: read-out: Activity
Neutrophil [3] = experiment: Induction of apoptosis in human neutrophils assessed as early apoptotic cells at 50 uM after 4 hrs by Annexin-V-FLUOS staining based flow cytometry (reference value: 9.7%); format: functional
Neutrophil [4] = experiment: Inhibition of PMA-induced oxidative burst in human neutrophils by chemiluminescence assay; format: functional, cell-based
Neutrophil [5] = experiment: Inhibition of PMA-induced oxidative burst in human neutrophils by APF assay; format: functional, cell-based
Neutrophil [6] = experiment: Induction of apoptosis in human neutrophils assessed as late apoptotic cells at 50 uM after 4 hrs by Annexin-V-FLUOS staining based flow cytometry in presence of Z-DEVD-FMK caspase 3 (reference value: 0.8%); format: functional
Neutrophil [7] = experiment: Inhibition of PMA-induced oxidative burst in human neutrophils by amplex red assay; format: functional, cell-based
Neutrophil [8] = experiment: Induction of apoptosis in human neutrophils assessed as early apoptotic cells at 50 uM after 4 hrs by Annexin-V-FLUOS staining based flow cytometry in presence of Z-DEVD-FMK caspase 3 (reference value: 10.1%); format: functional
[9] = Cytotoxicity against human neutrophils assessed as cell viability at 50 uM after 4 hrs by trypan blue assay; format: cell-based, Neutrophil; details: read-out: Activity
Neutrophil [10] = experiment: Induction of apoptosis in human neutrophils assessed as necrotic cells at 50 uM after 4 hrs by Annexin-V-FLUOS staining based flow cytometry (reference value: 0.1%); format: functional
Neutrophil [11] = experiment: Induction of apoptosis in human neutrophils assessed as viable cells at 50 uM after 4 hrs by Annexin-V-FLUOS staining based flow cytometry in presence of Z-DEVD-FMK caspase 3 (reference value: 89.0%); format: functional; details: read-out: Activity
Neutrophil [12] = experiment: Induction of apoptosis in human neutrophils assessed as late apoptotic cells at 50 uM after 4 hrs by Annexin-V-FLUOS staining based flow cytometry (reference value: 0.5%); format: functional
Neutrophil [13] = experiment: Inhibition of PMA-induced oxidative burst in human neutrophils at 50 uM by amplex red assay; format: functional
Neutrophil [14] = experiment: Inhibition of PMA-induced oxidative burst in human neutrophils at 50 uM by chemiluminescence assay; format: functional
Neutrophil [15] = experiment: Inhibition of PMA-induced oxidative burst in human neutrophils at 50 uM by APF assay; format: functional

| Compound | Activity (Neutrophil [1]) [%] | viability at 50 µM (Neutrophil [2]) [%] | Activity (Neutrophil [3]) [%] | IC50 (Neutrophil [4]) [nM] | IC50 (Neutrophil [5]) [nM] | Activity (Neutrophil [6]) [%] | IC50 (Neutrophil [7]) [nM] | Activity (Neutrophil [8]) [%] | viability at 4 h, 50 µM [9] [%] | Activity (Neutrophil [10]) [%] | viability at 50 µM (Neutrophil [11]) [%] | Activity (Neutrophil [12]) [%] | inhibition at 50 µM (Neutrophil [13]) [%] | inhibition at 50 µM (Neutrophil [14]) [%] | inhibition at 50 µM (Neutrophil [15]) [%] |
| --- | --- | --- | --- | --- | --- | --- | --- | --- | --- | --- | --- | --- | --- | --- | --- |
| O=c1cc(-c2ccc(O)c(O)c2)oc2c(Cl)c(O)cc(O)c12 | 0 | 74.1 | 25.3 | 2600 | 2600 | 1 | 1600 | 9.6 | 98 | 0 | 89.4 | 0.5 | – | – | – |
| O=c1c(Cl)c(-c2ccc(O)c(O)c2)oc2c(Cl)c(O)cc(O)c12 | – | – | – | 4600 | 1800 | – | 1700 | – | 98 | – | – | – | – | – | – |
| O=c1cc(-c2ccccc2)oc2ccccc12 [FLAVONE] | – | – | – | – | – | – | – | – | 98 | – | – | – | < 40 | < 40 | < 40 |
| O=c1cc(-c2ccc(O)c(O)c2)oc2cc(O)cc(O)c12 [LUTEOLIN] | – | 78.6 | 20.2 | 5200 | 2200 | – | 1700 | – | 98 | 0.1 | – | 1.1 | – | – | – |
| O=c1cc(-c2ccc(O)c(O)c2)oc2c(Cl)c(O)c(Cl)c(O)c12 | – | 83.7 | 15.3 | 3400 | 7200 | – | 6200 | – | 98 | 0.1 | – | 0.9 | – | – | – |
| O=c1c(O)c(-c2ccc(O)c(O)c2)oc2cc(O)cc(O)c12 [QUERCETIN] | – | 84.7 | 14.6 | 2800 | 1800 | – | 2700 | – | 98 | 0.1 | – | 0.6 | – | – | – |
| O=c1c(Cl)c(-c2ccc(O)c(O)c2)oc2cc(O)cc(O)c12 | – | – | – | 2000 | 400 | – | 1400 | – | 98 | – | – | – | – | – | – |
